Tested on: isolated guinea pig ileum
Assay: Anti-cholinergic activity: acetylcholine-induced contraction of isolated guinea pig ileum
Details: in words; isolated compounds were tested only on isolated guinea pig ileum
Description: Female, virgin guinea pigs weighing around 300 to 350 g, housed under uniform husbandry conditions (temperature 25±1° C.) were used. The animals were starved 24 hours prior to the experiment, only water was provided ad libitum.
The isolated guinea pig ileum was used to study the anti-spasmodic, anti-cholinergic, and anti-arrhythmic activity of the active fractions.
In particular, the five compounds isolated were tested only on isolated guinea pig ileum. The longitudinal ileal muscle from a freshly killed guinea pig was suspended in an organ bath of 10 ml capacity, filled with Tyrode solution, and aerated with air.
All of these compounds were dissolved in 1000 ml of distilled water.
Two to four doses of acetylcholine were added to the bath to obtain uniform amplitude with a contact period of 30 seconds, the contractions of which were recorded on a polygraph. The five compounds isolated were tested in doses of 196 and 392×10^−6 moles per ml of bath concentration.

C=C(C)[C@@H]1CC[C@]2(CO)CC[C@]3(C)[C@H](CC[C@@H]4[C@@]5(C)CC[C@H](O)C(C)(C)[C@@H]5CC[C@]43C)[C@@H]12 [betulin]
biological activity shown by the extract, in purified compounds: maintained

CCCCCCCCCCCCCCCC(=O)OC [methyl palmitate]
biological activity shown by the extract, in purified compounds: maintained
